Test results from US9409905B2, “Antibacterial compounds and methods for use” (PTC THERAPEUTICS, INC., priority 2011, dated 2016).
Converted amounts (≈) assume the structure as drawn.

Experiments:
[1] = system: Escherichia coli (E. coli) BAS849; assay: Antibacterial activity, microbroth dilution MIC (Table 1); format: cell-based; details: microbroth dilution, super sensitive Gram-negative E. coli BAS849, read-out: MIC, BAS849
Outline: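 Values are MICs (μg/mL): the smallest drug amount at which macroscopically visible bacterial growth is absent under assay conditions, from a microdilution method in broth.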

[2] = system: Staphylococcus aureus (S. aureus) 29213; assay: as above; format: cell-based; details: microbroth dilution, Gram-positive S. aureus 29213, read-out: MIC, 29213
Outline: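 Lowest concentration stopping macroscopically visible growth under test conditions, by broth microdilution, defines the MIC (μg/mL).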

E. coli 25922 = assay: as above; format: cell-based, Escherichia coli; details: Escherichia coli; microbroth dilution; control Gram-negative E. coli 25922 strain; read-out: MIC, 25922
Outline: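 MIC (μg/mL) read as lowest concentration with no macroscopically visible growth; microbroth dilution format. E. coli 25922 served as control Gram-negative strain.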

E. coli LZ3111 = assay: Antibacterial activity, MIC, quinolone resistant strain (Table 2); format: cell-based; details: Escherichia coli, LZ3111, read-out: MIC LZ3111
Outline: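 Growth inhibition assessed by serial drug dilution in broth; endpoint was absence of macroscopically visible growth, reported as MIC, μg/mL.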

[3] = system: Acinetobacter baumannii (A. baumannii) BAA747; assay: Antibacterial activity, MIC (Table 4); format: cell-based; details: A. baumannii BAA747, read-out: MIC, BAA747
Text: (§1) The antibacterial activity from a microbroth dilution method may be presented as the minimum inhibitory concentration (MIC in μg/mL). The MIC value is the lowest concentration of drug which prevents macroscopically visible growth under test conditions.
(§2) Antibacterial activity of test compounds against the Gram-negative Acinetobacter baumannii (A. baumannii) BAA747 and Klebsiella pneumoniae (K. pneumoniae) 35657 bacterium and the resistant A. baumannii MXX2240 and K. pneumoniae MXX1232 strains are shown in Table 4. The MMX strains are multi-drug resistant clinical isolates.

[4] = system: Klebsiella pneumoniae (K. pneumoniae) 35657; assay: Antibacterial activity, MIC (Table 4); format: cell-based; details: K. pneumoniae 35657, read-out: MIC, 35657
Text: as §1, §2

[5] = system: Pseudomonas aeruginosa (P. aeruginosa) 27853; assay: Antibacterial activity, MIC (Table 5); format: cell-based; details: P. aeruginosa 27853, read-out: MIC, 27853
Text: as §1
Antibacterial activity of test compounds against the Gram-negative bacterium Pseudomonas aeruginosa (P. aeruginosa) 27853 is shown in Table 5.

| Compound | MIC [1] [µg/mL] | MIC [2] [µg/mL] | MIC (E. coli 25922) [µg/mL] | MIC (E. coli LZ3111) [µg/mL] | MIC [3] [µg/mL] | MIC [4] [µg/mL] | MIC [5] [µg/mL] |
| --- | --- | --- | --- | --- | --- | --- | --- |
| CCc1c(-c2ccc3c(c2)cc(C2CCNC2)n3C)[nH]c(=O)c(C(=O)O)c1O (stereo not shown) [Cpd 306, 5-ethyl-4-hydroxy-6-(1-methyl-2-(pyrrolidin-3-yl)-1H-indol-5-yl)-2-oxo-1,2-dihydropyridine-3-carboxylic acid] | 1 to 3.5 (≈ 2.62 to 9.18 µM) | 12.5 to 150 (≈ 32.8 to 393 µM) | 3.5 to 12.5 (≈ 9.18 to 32.8 µM) | 3.5 to 12.5 (≈ 9.18 to 32.8 µM) | 12.5 to 150 (≈ 32.8 to 393 µM) | 3.5 to 12.5 (≈ 9.18 to 32.8 µM) | 12.5 to 150 (≈ 32.8 to 393 µM) |
| CN(C)Cc1cc2cc(-c3cc(O)c(C(=O)O)c(=O)[nH]3)ccc2n1C [Cpd 326, 6-(2-((dimethylamino)methyl)-1-methyl-1H-indol-5-yl)-4-hydroxy-2-oxo-1,2-dihydropyridine-3-carboxylic acid] | 12.5 to 150 (≈ 36.6 to 439 µM) | 12.5 to 150 (≈ 36.6 to 439 µM) | 12.5 to 150 (≈ 36.6 to 439 µM) | 12.5 to 150 (≈ 36.6 to 439 µM) |  |  |  |
| Cn1c(CN2CCCC2)cc2cc(-c3cc(O)c(C(=O)O)c(=O)[nH]3)ccc21 [Cpd 327, 4-hydroxy-6-(1-methyl-2-(pyrrolidin-1-ylmethyl)-1H-indol-5-yl)-2-oxo-1,2-dihydropyridine-3-carboxylic acid] | 3.5 to 12.5 (≈ 9.53 to 34 µM) | 12.5 to 150 (≈ 34 to 408 µM) | 12.5 to 150 (≈ 34 to 408 µM) | 12.5 to 150 (≈ 34 to 408 µM) |  |  |  |
| CCc1c(-c2ccc3c(c2)cc(CN2CCCC2)n3C)[nH]c(=O)c(C(=O)O)c1N [Cpd 329, 4-amino-5-ethyl-6-(1-methyl-2-(pyrrolidin-1-ylmethyl)-1H-indol-5-yl)-2-oxo-1,2-dihydropyridine-3-carboxylic acid] | < 1 | 12.5 to 150 (≈ 31.7 to 380 µM) | 3.5 to 12.5 (≈ 8.87 to 31.7 µM) | 12.5 to 150 (≈ 31.7 to 380 µM) |  |  |  |
| CCc1c(-c2ccc3c(c2)cc(CN(C)C)n3C)[nH]c(=O)c(C(=O)O)c1N [Cpd 330, 4-amino-6-(2-((dimethylamino)methyl)-1-methyl-1H-indol-5-yl)-5-ethyl-2-oxo-1,2-dihydropyridine-3-carboxylic acid] | < 1 | 12.5 to 150 (≈ 33.9 to 407 µM) | 3.5 to 12.5 (≈ 9.5 to 33.9 µM) | 12.5 to 150 (≈ 33.9 to 407 µM) |  |  |  |
| CCc1c(-c2ccc3c(c2)cc(CN2CCC(N(C)C)C2)n3C)[nH]c(=O)c(C(=O)O)c1N (stereo not shown) [Cpd 332, 4-amino-6-(2-((3-(dimethylamino)pyrrolidin-1-yl)methyl)-1-methyl-1H-indol-5-yl)-5-ethyl-2-oxo-1,2-dihydropyridine-3-carboxylic acid] | 3.5 to 12.5 (≈ 8 to 28.6 µM) | 12.5 to 150 (≈ 28.6 to 343 µM) | 12.5 to 150 (≈ 28.6 to 343 µM) | 12.5 to 150 (≈ 28.6 to 343 µM) |  |  |  |
| CCc1c(-c2ccc3c(c2)c(C#N)cn3C)[nH]c(=O)c(C(=O)O)c1O [Cpd 359, 6-(3-cyano-1-methyl-1H-indol-5-yl)-5-ethyl-4-hydroxy-2-oxo-1,2-dihydropyridine-3-carboxylic acid] | 3.5 to 12.5 (≈ 10.4 to 37.1 µM) | 12.5 to 150 (≈ 37.1 to 445 µM) | 12.5 to 150 (≈ 37.1 to 445 µM) | 1 to 3.5 (≈ 2.96 to 10.4 µM) |  |  |  |
| CCc1c(-c2ccc3c(c2)c(C#N)c(N2CCCC2)n3C)[nH]c(=O)c(C(=O)O)c1O [Cpd 360, 6-(3-cyano-1-methyl-2-(pyrrolidin-1-yl)-1H-indol-5-yl)-5-ethyl-4-hydroxy-2-oxo-1,2-dihydropyridine-3-carboxylic acid] | 3.5 to 12.5 (≈ 8.61 to 30.8 µM) | 1 to 3.5 (≈ 2.46 to 8.61 µM) | 12.5 to 150 (≈ 30.8 to 369 µM) | 12.5 to 150 (≈ 30.8 to 369 µM) |  |  |  |
| CCc1c(-c2ccc3c(c2)c(C#N)c(N(C)C)n3C)[nH]c(=O)c(C(=O)O)c1O [Cpd 361, 6-(3-cyano-2-(dimethylamino)-1-methyl-1H-indol-5-yl)-5-ethyl-4-hydroxy-2-oxo-1,2-dihydropyridine-3-carboxylic acid] | 1 to 3.5 (≈ 2.63 to 9.2 µM) | 3.5 to 12.5 (≈ 9.2 to 32.9 µM) | 12.5 to 150 (≈ 32.9 to 394 µM) | 12.5 to 150 (≈ 32.9 to 394 µM) |  |  |  |
| CCc1c(-c2ccc3c(c2)c(Cl)cn3C)[nH]c(=O)c(C(=O)O)c1O [Cpd 363, 6-(3-chloro-1-methyl-1H-indol-5-yl)-5-ethyl-4-hydroxy-2-oxo-1,2-dihydropyridine-3-carboxylic acid] | < 1 | 1 to 3.5 (≈ 2.88 to 10.1 µM) | 12.5 to 150 (≈ 36 to 433 µM) | 1 to 3.5 (≈ 2.88 to 10.1 µM) |  |  |  |
